The text below walks through data of US20250243180A1, “TARGETED PROTEIN DEGRADATION” (Monte Rosa Therapeutics AG, priority 2023, published 2025).

One data set deals with CRBN-DDB1 (Homo sapiens (Human), UniProt Q96SW2). Put plainly: Compound binding to CRBN by HTRF assay. The gist of the method: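 HTRF displacement of Cy5-thalidomide probe (100 nM) from His-tagged CRBN-DDB1 (2.5 nM) with anti-His terbium cryptate, in HEPES/NaCl/TCEP/EDTA/Tween20 buffer; 11-point 1:3 dilution series, 30 min at ambient temperature. Signal (665/620 nm) normalized to lenalidomide and DMSO controls; EC50 fitted, Ki by Cheng-Prusoff from geometric mean EC50.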

The target of another data set is NEK7 (Homo sapiens (Human), UniProt Q8TDX7+Q96SW2). Briefly: NEK7 NanoBiT degradation assay in Cal51 NEK7 NanoBiT cell line. The class given is cell-based. The following applies: Cal51 NEK7 NanoBiT cells, 24 hours; for Dmax: CAL-51. The gist of the method: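 Cal51 cells with CRISPR knock-in HiBiT-tagged endogenous NEK7 plus stable LgBiT, in live-cell Endurazine medium, seeded 16 h before dosing. Compounds at final 1 μM to 0.05 nM for 24 h at 37 °C, then luminescence read. Response normalized to plate controls and fitted with a 4-parameter logistic giving EC50.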

Another data set relates to Caspase-1 activity. Briefly: Caspase-1 activity in human monocyte-derived macrophages, LPS/nigericin stimulation. The data set is classed as cell-based. As to conditions: Macrophage, 24 h pre-treatment, LPS 3 h then 10 μM nigericin 1 h, read-out: Caspase-1 IC50 (NIG). On the procedure:
(§1) Human monocytes were enriched and isolated from a buffy coat of healthy donor whole blood with a RosetteSep™ Human Monocyte Enrichment Cocktail (Cat.No. 15068, StemCell) and Ficoll-Plaque PLUS (Cat.No. H8889, Sigma). Monocytes were differentiated into macrophages by treatment with 100 ng/mL M-CSF for 6 days at 37° C., 5% CO2. Differentiated macrophages were seeded overnight (50,000 cells/well) in 100 µL of medium in a 96-well, white-bottom plate at 37° C., 5% CO2. Cells were treated with a concentration range of MGD for 24 hours prior to stimulation with nigericin. Macrophages were primed with […] LPS for 3 h followed by 1 h stimulation with 10 μM nigericin. Media of stimulated macrophages were collected and assayed for caspase 1 activity directly (Promega G9951), according to manufacturer's instructions. For IL-1β release assay, media of stimulated macrophages were collected and stored at −20° C., then thawed at 4° C. before assaying for IL-1β activity (Promega W6011), according to manufacturer's instructions.

The subject of another data set is IL-1β release. Briefly: IL-1β release in human monocyte-derived macrophages, LPS/nigericin stimulation. The data set is classed as cell-based. The following applies: Macrophage, 24 h pre-treatment, LPS 3 h then 10 μM nigericin 1 h, read-out: IL-1b IC50 (NIG). Here is the method:
as §1

Data set [1] in a line: Plasma concentration in NHP, multiple-dose study 5 mg/kg oral. The data set is classed as in vivo, cynomolgus monkeys. As to conditions: both sexes, cynomolgus monkey. Here is the method: Non-naïve male and female non-human primate (NHP) cynomolgus monkeys were orally administered with 5 consecutive daily doses of Compound 14 at 5 mg/kg, n=2 per dose group, 1 male and 1 female. Compound formulation was prepared on the day of administration in 0.5% methyl cellulose (4000 cps) in water and animals were fasted overnight. Plasma collected post dose were analyzed using a non GLP LC/MS/MS bioanalytical method to evaluate the compound concentration. Whole blood collected post dose were processed to PBMC and were analyzed using western blot method. Plasma pharmacokinetics and PMBC pharmacodynamics were assessed longitudinally throughout dosing and following dosing cessation.
In Table 7, plasma was isolated 6 h after final dose (dosed once or over five consecutive days), n=2. Plasma collected post dose were analyzed using a non GLP LC/MS/MS bioanalytical method to evaluate the compound concentration.

Where [2] appears, read: NEK7 degradation, read-out: NanoBiT Dmax.
[3] abbreviates: NEK7 degradation, read-out: NanoBiT DC50.

Structures are written as SMILES. pEC50, pIC50: −log10 of the molar value. Where two headings read alike, the source gives them in different places. Where only a bound is given, the exact number is not on record here.

Chain of CRBN-DDB1 (Q96SW2 whole entry): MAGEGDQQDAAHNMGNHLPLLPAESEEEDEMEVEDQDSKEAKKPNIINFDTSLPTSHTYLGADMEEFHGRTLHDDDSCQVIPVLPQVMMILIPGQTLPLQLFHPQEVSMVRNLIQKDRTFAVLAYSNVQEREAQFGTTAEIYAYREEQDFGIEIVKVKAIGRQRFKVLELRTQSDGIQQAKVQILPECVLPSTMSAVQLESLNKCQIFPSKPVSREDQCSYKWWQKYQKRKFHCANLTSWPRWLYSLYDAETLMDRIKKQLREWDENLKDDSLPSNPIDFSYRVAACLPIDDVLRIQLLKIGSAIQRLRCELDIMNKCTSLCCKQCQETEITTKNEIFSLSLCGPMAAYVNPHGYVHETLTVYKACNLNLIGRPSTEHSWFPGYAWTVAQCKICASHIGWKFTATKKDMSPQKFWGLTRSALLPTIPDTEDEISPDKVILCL
Chain of CRBN-DDB1 (Q16531 whole entry partner): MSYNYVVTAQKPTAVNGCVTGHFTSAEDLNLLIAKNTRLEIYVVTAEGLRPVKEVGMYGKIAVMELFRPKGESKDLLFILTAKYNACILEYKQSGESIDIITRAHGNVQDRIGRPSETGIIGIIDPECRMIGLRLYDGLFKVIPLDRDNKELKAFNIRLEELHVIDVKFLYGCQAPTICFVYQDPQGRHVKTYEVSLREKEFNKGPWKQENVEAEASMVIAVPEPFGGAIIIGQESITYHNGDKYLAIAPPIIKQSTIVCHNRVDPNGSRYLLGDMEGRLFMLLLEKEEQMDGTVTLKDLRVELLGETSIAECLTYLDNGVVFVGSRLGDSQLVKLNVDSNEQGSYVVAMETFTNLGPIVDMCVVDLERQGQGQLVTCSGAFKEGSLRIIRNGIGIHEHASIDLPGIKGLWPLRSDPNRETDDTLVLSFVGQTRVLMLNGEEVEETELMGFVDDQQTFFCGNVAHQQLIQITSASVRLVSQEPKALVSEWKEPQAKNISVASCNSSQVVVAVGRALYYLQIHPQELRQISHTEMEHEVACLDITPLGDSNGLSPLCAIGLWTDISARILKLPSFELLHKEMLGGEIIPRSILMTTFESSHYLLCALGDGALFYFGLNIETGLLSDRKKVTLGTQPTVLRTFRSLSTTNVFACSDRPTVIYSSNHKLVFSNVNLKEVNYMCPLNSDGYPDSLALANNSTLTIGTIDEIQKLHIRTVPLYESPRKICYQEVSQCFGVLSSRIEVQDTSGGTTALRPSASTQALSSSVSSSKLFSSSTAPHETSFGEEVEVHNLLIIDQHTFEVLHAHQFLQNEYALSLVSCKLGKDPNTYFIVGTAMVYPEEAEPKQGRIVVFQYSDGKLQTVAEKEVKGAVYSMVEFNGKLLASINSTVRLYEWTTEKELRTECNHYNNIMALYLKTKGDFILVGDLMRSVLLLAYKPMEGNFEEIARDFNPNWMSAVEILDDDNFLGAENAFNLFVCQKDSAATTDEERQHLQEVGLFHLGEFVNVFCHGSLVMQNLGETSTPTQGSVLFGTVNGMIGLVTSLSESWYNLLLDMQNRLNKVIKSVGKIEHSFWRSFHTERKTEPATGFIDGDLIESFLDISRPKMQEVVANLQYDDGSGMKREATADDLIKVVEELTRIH
Chain of NEK7 (Q8TDX7 whole entry): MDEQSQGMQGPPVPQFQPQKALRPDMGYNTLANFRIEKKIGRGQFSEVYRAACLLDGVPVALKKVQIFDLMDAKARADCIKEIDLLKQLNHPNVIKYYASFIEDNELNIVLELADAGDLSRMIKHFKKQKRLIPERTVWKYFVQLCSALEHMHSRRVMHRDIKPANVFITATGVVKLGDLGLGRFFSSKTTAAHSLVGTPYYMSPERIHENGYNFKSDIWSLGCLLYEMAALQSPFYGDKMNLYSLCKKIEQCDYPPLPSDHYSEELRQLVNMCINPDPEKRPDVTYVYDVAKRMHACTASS
Chain of NEK7 (Q96SW2 whole entry): as the sequence (Q96SW2 whole entry) above
Chain of NEK7 (Q16531 2-1140 partner): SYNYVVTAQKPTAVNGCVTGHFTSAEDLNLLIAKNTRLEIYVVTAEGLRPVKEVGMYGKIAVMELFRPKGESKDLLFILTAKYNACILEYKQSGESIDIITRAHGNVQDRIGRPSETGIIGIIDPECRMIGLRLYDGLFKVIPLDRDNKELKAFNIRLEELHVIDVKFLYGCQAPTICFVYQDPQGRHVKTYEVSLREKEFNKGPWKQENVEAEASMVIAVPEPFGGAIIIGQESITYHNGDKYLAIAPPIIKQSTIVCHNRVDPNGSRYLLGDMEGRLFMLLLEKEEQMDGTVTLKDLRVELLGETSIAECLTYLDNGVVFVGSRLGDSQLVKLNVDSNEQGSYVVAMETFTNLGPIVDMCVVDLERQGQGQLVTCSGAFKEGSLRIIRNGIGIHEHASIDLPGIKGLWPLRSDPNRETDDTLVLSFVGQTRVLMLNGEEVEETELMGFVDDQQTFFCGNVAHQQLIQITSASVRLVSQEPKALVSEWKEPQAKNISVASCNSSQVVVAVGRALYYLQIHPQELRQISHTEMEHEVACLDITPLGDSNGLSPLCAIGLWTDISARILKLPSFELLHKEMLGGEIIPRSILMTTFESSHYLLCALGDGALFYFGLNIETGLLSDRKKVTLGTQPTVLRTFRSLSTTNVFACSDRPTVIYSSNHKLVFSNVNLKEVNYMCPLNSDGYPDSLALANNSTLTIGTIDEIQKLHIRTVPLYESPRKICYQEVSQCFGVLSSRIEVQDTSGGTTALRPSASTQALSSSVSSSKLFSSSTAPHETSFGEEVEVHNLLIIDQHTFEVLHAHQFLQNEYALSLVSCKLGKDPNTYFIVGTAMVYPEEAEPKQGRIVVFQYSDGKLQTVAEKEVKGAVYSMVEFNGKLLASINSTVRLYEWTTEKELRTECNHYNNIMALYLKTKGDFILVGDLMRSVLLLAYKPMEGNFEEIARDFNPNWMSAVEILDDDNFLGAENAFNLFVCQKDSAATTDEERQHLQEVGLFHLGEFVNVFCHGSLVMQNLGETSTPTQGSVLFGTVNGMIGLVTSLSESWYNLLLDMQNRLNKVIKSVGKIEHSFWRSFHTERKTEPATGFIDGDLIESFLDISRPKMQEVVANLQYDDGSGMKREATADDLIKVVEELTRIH

Regarding `Cc1cnc(C(C)(C)C(=O)NCc2cc(Cl)c(C3CCC(=O)NC3=O)c(Cl)c2)nc1` (stereo not drawn) [Compound 14, N-(3,5-dichloro-4-(2,6-dioxopiperidin-3-yl)benzyl)-2-methyl-2-(5-methylpyrimidin-2-yl)-propanamide], the pEC50 at CRBN-DDB1 is 6.96; at CRBN-DDB1 (HTRF class, Cereblon binding) it was 6.00 to 7.00. For the same molecule, the Dmax is 89% on NEK7 (read-out: NEK7 NanoBiT Dmax) and over 75% on NEK7 (setting [2]). For the same molecule, the DC50 at NEK7 (read-out: NEK7 NanoBiT DC50) was 9 nM; on NEK7 (setting [3]), at most 100 nM. The pIC50 was 8.73 in the data set with Caspase-1 activity and 8.71 in the data set on IL-1β release. For the same molecule, the concentration at 6 h in data set [1] (Day 1, 6 h post final dose) is 5.4 ng/mL; in data set [1] (Day 5, 6 h post final dose), 7.5 ng/mL.
`CC(C)(C(=O)NCc1cc(Cl)c(C2CCC(=O)NC2=O)c(Cl)c1)c1ncc(C#N)cn1` (stereo not drawn) [Compound 16, 2-(5-cyanopyrimidin-2-yl)-N-(3,5-dichloro-4-(2,6-dioxopiperidin-3-yl)benzyl)-2-methyl-propanamide]: the pEC50 at CRBN-DDB1 was 6.92; on CRBN-DDB1 (HTRF class, Cereblon binding) it was 6.00 to 7.00. Also, the Dmax was 95% on NEK7 (read-out: NEK7 NanoBiT Dmax) and over 75% on NEK7 (setting [2]). The DC50 on NEK7 (read-out: NEK7 NanoBiT DC50) was 4 nM; on NEK7 (setting [3]), at most 100 nM. In addition, the pIC50 was 9.49 in the data set on Caspase-1 activity and 9.25 in the data set on IL-1β release.

In general, pEC50 refers to the negative decadic logarithm of the EC50, by convention in mol/L. High values mean a small EC50, low ones a large EC50. As a reminder, the Dmax is the largest share of the target that was removed. A word on the DC50: it is the concentration at which degradation of the target reaches its halfway point. One may read the pIC50 as the IC50 on a negative log10 scale, so that one unit is a factor of ten.
